Where two headings read alike, the source gives them in different places.
Columns and labels:
[1] = Animal biodistribution of 99mTc complexes in guinea pigs; format: in vivo, guinea pig;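 note: Heart, liver and kidney plus urine values are percent of the injected material, background-corrected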
Method: (§1) Percentage biodistribution of injected material was calculated (after correction for background) for all organs using the formula: [formula]
(§2) Since only samples of muscle and blood were taken, the percentage in these tissues was calculated assuming blood and muscle to represent 5.8 and 43% of total animal weight respectively using the formula: [formula]
Since only samples of muscle and blood were taken, the percentage in these tissues was calculated assuming blood and muscle to represent 5.8 and 43% of total animal weight respectively using the formula: [formula] where CF= 0.058 for blood

[2] = Animal biodistribution of 99mTc complexes in rats (i.v. injection, organ counting); conditions: Table VII, nitrosyl complex [Tc(NO)Cl2 L2 ]^- of the ligand, 60 min p.i.
Method: (§3) In vivo biodistribution: 0.1 ml Tc^99m prep was injected i.v. into a laterial tail vein of 6 anaesthetised rats.
(§4) At 2 minutes and 60 minutes post-injection, 3 rats were sacrificed by decapitation, bled from the neck and dissected. The following organs were removed at dissection: kidney; bladder(+ urine), lung, liver, spleen, stomach, small intestine, large intestine, brain (weighed), heart (weighed), thyroid and samples of blood (weighed) and muscle (weighed), the residual carcass and the tail (injection site). Subsequently samples were counted in an automatic twin crystal gamma counter.
as §1, §2

[3] = rat, in vivo
Method: as §3, §4, §1, §2

[4] = Table VIII, [TcL3 ]^+ complex of the ligand, guinea pigs, 2 min p.i.
[5] = Table VIII, [TcL3 ]^+ complex of the ligand, guinea pigs, 60 min p.i.
[6] = guinea pig, 2 min p.i. in vivo, mean
[7] = guinea pig, 60 min p.i. in vivo, mean

CP(C)CCP(C)C [dmpe, di(dimethylphosphino) ethane, reference compound]
Heart [1, 4]: 0.53 % injected dose | Heart/Blood Counts/Gram ratio [1, 4]: 0.42 | Heart/Liver Counts/Gram ratio [1, 4]: 0.30 | Heart/Muscle Counts/Gram ratio [1, 4]: 6.11 | Liver [1, 4]: 38.0 % injected dose | Heart [1, 5]: 0.38 % injected dose | Heart/Blood Counts/Gram ratio [1, 5]: 3.27 | Heart/Liver Counts/Gram ratio [1, 5]: 0.13 | Heart/Muscle Counts/Gram ratio [1, 5]: 4.12 | Liver [1, 5]: 36.8 % injected dose | Heart/Liver Counts/Gram ratio [2]: 1.52

COCC(COC)(CP(C)C)CP(C)C.COCC(COC)(CP(C)C)CP(C)C.O=[N][99Tc+][Cl].[Cl-] [Example 19]
Blood [1, 6]: 3.77 % injected dose/organ | Heart [1, 6]: 1.36 % injected dose/organ | Heart/Blood Counts/Gram ratio [1, 6]: 8.66 | Heart/Liver Counts/Gram ratio [1, 6]: 2.20 | Heart/Lung Counts/Gram ratio [1, 6]: 0.9 | Heart/Muscle Counts/Gram ratio [1, 6]: 4.65 | Kidney + Urine [1, 6]: 15.5 % injected dose/organ | Liver [1, 6]: 11.0 % injected dose/organ | Liver + GI [1, 6]: 35.0 % injected dose/organ | Lung [1, 6]: 1.57 % injected dose/organ | Muscle [1, 6]: 38.6 % injected dose/organ | Blood [1, 7]: 0.48 % injected dose/organ | Heart [1, 7]: 1.05 % injected dose/organ | Heart/Blood Counts/Gram ratio [1, 7]: 49.6 | Heart/Liver Counts/Gram ratio [1, 7]: 17.5 | Heart/Lung Counts/Gram ratio [1, 7]: 2.0 | Heart/Muscle Counts/Gram ratio [1, 7]: 4.77 | Kidney + Urine [1, 7]: 18.1 % injected dose/organ | Liver [1, 7]: 0.92 % injected dose/organ | Liver + GI [1, 7]: 45.9 % injected dose/organ | Lung [1, 7]: 0.52 % injected dose/organ | Muscle [1, 7]: 30.6 % injected dose/organ | Blood ([3]; 2 min): 2.05 % injected dose/organ | Heart ([3]; 2 min): 1.56 % injected dose/organ | Heart/Blood Counts/Gram ratio ([3]; 2 min): 10.9 | Heart/Liver Counts/Gram ratio ([3]; 2 min): 1.56 | Heart/Lung Counts/Gram ratio ([3]; 2 min): 1.8 | Heart/Muscle Counts/Gram ratio ([3]; 2 min): 4.57 | Kidney + Urine ([3]; 2 min): 8.94 % injected dose/organ | Liver ([3]; 2 min): 13.2 % injected dose/organ | Liver + GI ([3]; 2 min): 35.3 % injected dose/organ | Lung ([3]; 2 min): 1.33 % injected dose/organ | Muscle ([3]; 2 min): 36.2 % injected dose/organ | Blood ([3]; 60 min): 0.14 % injected dose/organ | Heart ([3]; 60 min): 1.47 % injected dose/organ | Heart/Blood Counts/Gram ratio ([3]; 60 min): 192 | Heart/Liver Counts/Gram ratio ([3]; 60 min): 17.2 | Heart/Lung Counts/Gram ratio ([3]; 60 min): 3.6 | Heart/Muscle Counts/Gram ratio ([3]; 60 min): 5.6 | Kidney + Urine ([3]; 60 min): 11.0 % injected dose/organ | Liver ([3]; 60 min): 1.03 % injected dose/organ | Liver + GI ([3]; 60 min): 45.5 % injected dose/organ | Lung ([3]; 60 min): 0.68 % injected dose/organ | Muscle ([3]; 60 min): 28.2 % injected dose/organ

COCP(C)CCP(C)C (stereo not shown) [Example 2, Me2 P-(CH2)2 -P(Me) (CH2 OMe)]
Heart [1, 4]: 0.96 % injected dose | Heart/Blood Counts/Gram ratio [1, 4]: 1.59 | Heart/Liver Counts/Gram ratio [1, 4]: 0.51 | Heart/Muscle Counts/Gram ratio [1, 4]: 9.19 | Liver [1, 4]: 24.85 % injected dose | Heart [1, 5]: 0.43 % injected dose | Heart/Blood Counts/Gram ratio [1, 5]: 7.82 | Heart/Liver Counts/Gram ratio [1, 5]: 0.30 | Heart/Muscle Counts/Gram ratio [1, 5]: 4.60 | Liver [1, 5]: 26.13 % injected dose | general trend of biodistribution compared with dmpe complexes [3]: show the same general trend | Heart ([3]; 2 min): 0.96 % injected dose | Heart/Blood Counts/Gram ratio ([3]; 2 min): 9.05 | Heart/Liver Counts/Gram ratio ([3]; 2 min): 0.57 | Heart/Muscle Counts/Gram ratio ([3]; 2 min): 4.99 | Liver ([3]; 2 min): 20.45 % injected dose | Heart ([3]; 60 min): 0.94 % injected dose | Heart/Blood Counts/Gram ratio ([3]; 60 min): 49.63 | Heart/Liver Counts/Gram ratio ([3]; 60 min): 7.26 | Heart/Muscle Counts/Gram ratio ([3]; 60 min): 4.17 | Liver ([3]; 60 min): 1.62 % injected dose
